Measured values from paper PMC8568133, “Evaluation of bisphenylthiazoles as a promising class for combating multidrug-resistant fungal infections” (PLoS ONE, 2021).
In brackets after ≈: the same amount, converted by molar mass. Like-named read-outs stand apart in the source and are kept apart here.

Assays:
Candida auris = assay: Checkerboard assay of compound 17 with standard antifungals; format: cell-based; conditions: for FICI (fractional inhibitory concentration index) / Interpretation of interaction: antifungal combined with compound 17; for MIC Combined, Antifungal: antifungal in combination with compound 17; for MIC: Candidozyma auris, checkerboard, agent alone
Procedure: To evaluate the interactions between bisphenylthiazoles and the standard antifungal agents (fluconazole, amphotericin B, 5-fluorocytosine and caspofungin) against 2 C. auris clinical isolates, a standard checkerboard assay was utilized as described in previous studies. The fractional inhibitory concentration index (FICI) was calculated for each interaction. Interactions where the FICI was ≤0.5 were categorized as synergistic (SYN). FICI values of >0.5–1.25 were categorized as additive (ADD). FICI values of >1.25–4 were categorized as indifferent, and FICI values of > 4 were categorized as antagonistic. The experiment was repeated three independent times.

[1] = tested on: E. coli BW25113 (wild-type); assay: Broth microdilution MIC, initial antibacterial screening; format: cell-based, Escherichia coli
Procedure: (§1) The minimum inhibitory concentrations (MICs) of the tested compounds and control drugs against clinically-relevant bacterial strains were determined using the broth microdilution method, according to guidelines outlined by the Clinical and Laboratory Standards Institute (CLSI), or as described previously.
(§2) Initial screening of the bisphenylthiazoles against Gram-positive and Gram-negative bacteria. Bacterial strains, (except C. difficile that was grown anaerobically on brain heart infusion supplemented agar at 37° C for 48 hours), were grown aerobically overnight on tryptone soy agar plates at 37° C. Afterwards, a bacterial solution equivalent to 0.5 McFarland standard was prepared and diluted in cation-adjusted Mueller-Hinton broth (CAMHB) (for S. aureus, and E. coli) to achieve a bacterial concentration of about 5 × 10^5 CFU/mL. C. difficile was diluted in brain heart infusion supplemented broth, supplemented with yeast extract, hemin and vitamin K to achieve a bacterial concentration of about 5 × 10^5 CFU/mL. Compounds and control drugs were added in the first row of the 96 -well plates, and serially diluted with the corresponding media containing bacteria. Plates were then, incubated aerobi cally at 37° C for 18-20 hours (for S. aureus and E. coli). C. difficile was incubated anaerobically at 37° C for 48 hours. […]
(§3) the visual growth of bacteria.

MRSA USA300 = assay: as above; format: cell-based, S. aureus
Procedure: as §1, §2, §3

[2] = tested on: E. coli JW55031 (tolC-mutant); assay: microbe, parasite or virus in culture; format: cell-based, Escherichia coli
Procedure: as §1, §2, §3

Candida albicans = assay: Antifungal broth microdilution MIC (50% growth inhibition) and MFC; format: cell-based; conditions: C. albicans SS5314 (wild-type)
Procedure: Serial dilutions (from 128 μg/mL to 0.06 μg/mL) of the tested compounds and control drugs (fluconazole, itraconazole and amphotericin) (in triplicates), were screened against clinical isolates of Candida albicans, Candida auris, Candida glabrata, Candida parapsilosis, Candida tropicalis, Candida krusei, Cryptococcus neoformans, Cryptococcus gattii and Aspergillus fumigatus species using the broth microdilution method according to the Clinical and Laboratory Standards Institute guidelines. MICs were determined as the lowest concentration of the compounds that inhibited the fungal growth by 50% after incubation at 35 °C for 24 h (for Candida and Aspergillus), or 48 h (for Cryptococcus). The minimum fungicidal concentration (MFC) of these compounds was tested by plating 4 μL from wells with no growth onto YPD agar plates. The plates were incubated at 37 °C for 24 hours before recording the MFC, which was categorized as the lowest concentration that reduced fungal growth by 99.9% [45]. The experiment was repeated three independent times.

[3] = tested on: C. difficile ATCC BAA1870; assay: Broth microdilution MIC, initial antibacterial screening (anaerobic); format: cell-based, Clostridioides difficile
Procedure: as §1, §2, §3

[4] = Candida auris 381 (azole-sensitive)
[5] = Candida auris 385 (azole-resistant)
[6] = Escherichia coli, read-out: MIC

For Nc1nc(=O)[nH]cc1F [5-Fluorocytosine], the “FICI (fractional inhibitory concentration index)” value (Candida auris; [4]) was 1.250, the Interpretation of interaction (Candida auris; [4]) was “ADD (FICI values of >0.5–1.25 were categorized as additive (ADD))” and the “MIC Combined, Antifungal” value (Candida auris; [4]) was 0.125 µg/mL. The “FICI (fractional inhibitory concentration index)” value (Candida auris; [5]) was 1.125, the Interpretation of interaction (Candida auris; [5]) was “ADD (FICI values of >0.5–1.25 were categorized as additive (ADD))” and the “MIC Combined, Antifungal” value (Candida auris; [5]) was 0.25 µg/mL. The MIC (Candida auris; [4]) was 0.125 µg/mL and the MIC (Candida auris; [5]) was 0.25 µg/mL.

Molecule Cc1nc(-c2ccc(-c3ccccc3)cc2)sc1-c1nnc(NCCN(C)C)o1 [Compound 8, N-{5-[2-((1,1’-Biphenyl)-4-yl)-4-methylthiazol-5-yl]-1,3,4-oxadiazol-2-yl}-N,N-dimethylethane-1,2-diamine] has an MIC [1] of 64 µg/mL (≈ 158 µM), an MIC (MRSA USA300; MRSA USA300) of 32 µg/mL (≈ 78.9 µM) and an MIC ([2]; E. coli JW55031 (tolC-mutant)) of 16 µg/mL (≈ 39.5 µM). The MIC (Candida albicans) was 16 µg/mL (≈ 39.5 µM) and the MIC [3] was 16 µg/mL (≈ 39.5 µM).

With Cc1nc(-c2ccc(-c3ccccc3)cc2)sc1-c1nnc(NCC(=N)N)o1 [Compound 9, 2-{[5-(2-((1,1’-biphenyl)-4-yl)-4-methylthiazol-5-yl)-1,3,4-oxadiazol-2-yl]amino} acetimidamide] the MIC [1] was greater than 64 µg/mL, the MIC (MRSA USA300; MRSA USA300) was greater than 64 µg/mL and the MIC ([2]; E. coli JW55031 (tolC-mutant)) was greater than 64 µg/mL. For the same molecule, the MIC (Candida albicans) was greater than 64 µg/mL and the MIC [3] was greater than 64 µg/mL.

In the case of Cc1nc(-c2ccc(-c3ccccc3)cc2)sc1-c1nnc(N2CCC[C@H]2C(N)=O)o1 [Compound 13, (S)-1-{5-[2-((1,1’-biphenyl)-4-yl)-4-methylthiazol-5-yl]-1,3,4-oxadiazol-2-yl}pyro-lidine-2-carboxamide], the MIC [1] is reported as greater than 64 µg/mL, the MIC (MRSA USA300; MRSA USA300) is reported as greater than 64 µg/mL and the MIC ([2]; E. coli JW55031 (tolC-mutant)) is reported as greater than 64 µg/mL. It also gave an MIC (Candida albicans) greater than 64 µg/mL and an MIC [3] greater than 64 µg/mL.

Work on Cc1nc(-c2ccc(-c3ccccc3)cc2)sc1-c1nnc(N2CCC[C@@H]2C(N)=O)o1 [Compound 14, (R)-1-{5-[2-((1,1’-biphenyl)-4-yl)-4-methylthiazol-5-yl]-1,3,4-oxadiazol-2-yl}pyro-lidine-2-carboxamide] yielded an MIC [1] greater than 64 µg/mL, an MIC (MRSA USA300; MRSA USA300) greater than 64 µg/mL and an MIC ([2]; E. coli JW55031 (tolC-mutant)) greater than 64 µg/mL. For the same molecule, the MIC (Candida albicans) was greater than 64 µg/mL and the MIC [3] was 64 µg/mL (≈ 148 µM).

In the case of Cc1nc(-c2ccc(-c3ccccc3)cc2)sc1-c1nnc(N2CCC[C@H]2CO)o1 [Compound 20, (S)-{1-[5-(2-((1,1’-Biphenyl)-4-yl)-4-methylthiazol-5-yl)-1,3,4-oxadiazol-2-yl]pyro-lidin-2-yl}methanol], the MIC [1] is reported as greater than 64 µg/mL, the MIC (MRSA USA300; MRSA USA300) is reported as greater than 64 µg/mL and the MIC ([2]; E. coli JW55031 (tolC-mutant)) is reported as greater than 64 µg/mL. For the same molecule, the MIC (Candida albicans) was greater than 64 µg/mL and the MIC [3] was 64 µg/mL (≈ 153 µM).

Work on Cc1nc(-c2ccc(-c3ccccc3)cc2)sc1-c1nnc(N2CCC[C@@H]2CO)o1 [Compound 21, (R)-{1-[5-(2-((1,1’-Biphenyl)-4-yl)-4-methylthiazol-5-yl)-1,3,4-oxadiazol-2-yl]pyro-lidin-2-yl}tmethanol] yielded an MIC [1] greater than 64 µg/mL, an MIC (MRSA USA300; MRSA USA300) greater than 64 µg/mL and an MIC ([2]; E. coli JW55031 (tolC-mutant)) greater than 64 µg/mL. It also gave an MIC (Candida albicans) greater than 64 µg/mL and an MIC [3] greater than 64 µg/mL.

For CNC(C)C1CCC(N)C(OC2C(N)CC(N)C(OC3OCC(C)(O)C(NC)C3O)C2O)O1 (stereo not drawn) [Gentamicin, reference compound], the MIC [1, 6] was no more than 0.5 µg/mL and the MIC ([2]; Escherichia coli) was no more than 0.5 µg/mL.

CC(=O)NC[C@H]1CN(c2ccc(N3CCOCC3)c(F)c2)C(=O)O1 [Linezolid, reference compound] was tested, and the MIC [1, 6] was greater than 64 µg/mL, the MIC (MRSA USA300; Staphylococcus aureus, MRSA USA300, read-out: MIC) was 1 µg/mL (≈ 2.96 µM) and the MIC ([2]; Escherichia coli) was 8 µg/mL (≈ 23.7 µM). For the same molecule, the MIC ([3]; Clostridioides difficile, ATCCBAA1870, read-out: MIC) was 1 µg/mL (≈ 2.96 µM).

With CN[C@H](CC(C)C)C(=O)N[C@H]1C(=O)N[C@@H](CC(N)=O)C(=O)N[C@H]2C(=O)N[C@H]3C(=O)N[C@H](C(=O)N[C@H](C(=O)O)c4cc(O)cc(O)c4-c4cc3ccc4O)[C@H](O)c3ccc(c(Cl)c3)Oc3cc2cc(c3O[C@@H]2O[C@H](CO)[C@@H](O)[C@H](O)[C@H]2O[C@H]2C[C@](C)(N)[C@H](O)[C@H](C)O2)Oc2ccc(cc2Cl)[C@H]1O [Vancomycin, reference compound] the MIC (MRSA USA300; Staphylococcus aureus) was 1 µg/mL (≈ 0.69 µM).
